Reference: patent US9265784B2, “Antineoplastic combinations of 4-anilino-3-cyanoquinolines and capecitabine” (WYETH LLC, priority 2008, dated 2016)
Read-outs that look alike come from different tables or passages of the source.

Key:
Format in all cases: in vivo, human
[1] = Preliminary pharmacokinetic analyses of neratinib after oral administration; details: for AUC / Cmax: oral daily; for AUC: read-out: Mean steady-state AUC; for Cmax: read-out: Mean steady-state Cmax
Description: The mean accumulation ratio was 1.2 after a 240-mg dose, indicating no significant accumulation of neratinib after repeated daily dose administration at the dose to be used in this proposed trial.
The data indicated a slow distribution of neratinib with a large apparent volume of distribution (Vz/F on day 1: about 3188 to 6181 L) after oral absorption. […] There was moderate to large variability in neratinib t1/2, Cmax, and AUC; coefficients of variation (CVs) generally ranged from 8% to 90%.

[2] = tested on: erbB-2-overexpressing advanced or metastatic breast cancer; experiment: Ongoing phase 2 study of neratinib 240 mg daily oral, efficacy
Experimental: (§1) In an ongoing phase 2 study, neratinib is being administered as daily oral doses of 240 mg in subjects with erbB-2-overexpressing advanced or metastatic breast cancer, who received up to 4 prior cytotoxic chemotherapy treatment regimens, with prior trastuzumab therapy for metastatic or locally advanced disease (≧6 weeks) or with no prior exposure to erbB-2-targeted treatment. Preliminary results were obtained for 124 subjects evaluable for efficacy based on independent assessment and 131 subjects evaluable per investigator assessment. […] Median Progression Free Survival (PFS) for independent (and investigator) assessment was 23 (22), with a 16-week PFS rate of 61% (57%) in subjects who had received prior trastuzumab. For trastuzumab naïve subjects, PFS per independent (and investigator) assessment was 40 (35), with a 16-week PFS rate of 75% (78%).

[3] = Ongoing phase 2 study of neratinib 240 mg daily oral, adverse events
Experimental: as §1
The predominant AE was diarrhea, which was reversible and generally manageable by medication, temporary discontinuation of treatment, or dose reduction. Diarrhea that was considered related to neratinib occurred with a frequency of 94% of the subjects. Of those, grade 3-4 diarrhea was experienced by 25% of the subjects. Other common AEs were nausea (related to neratinib in 30%, grade 3-4 in 2% of the subjects), vomiting (related in 23%, grade 3-4 in 2%), fatigue (related in 20%, grade 3-4 in <2%), and anorexia (related in 16%, grade 3-4 in 4%). […] Presented at the Poster presented at the SABCS, San Antonio, USA].

[4] = human, in vivo, 400 mg (highest dose)
[5] = human, in vivo, 180-mg dose group
[6] = human, in vivo, 240-mg dose group
[7] = human, in vivo, 320-mg dose group
[8] = prior trastuzumab, independent assessment
[9] = prior trastuzumab, investigator assessment
[10] = trastuzumab naïve subjects, independent assessment
[11] = trastuzumab naïve subjects, investigator assessment

CCOc1cc2ncc(C#N)c(Nc3ccc(OCc4ccccn4)c(Cl)c3)c2cc1NC(=O)/C=C/CN(C)C [neratinib, (2E)-N-[4-[[3-chloro-4-[(pyridin-2-yl)methoxy]phenyl]amino]-3-cyano-7-ethoxyquinolin-6-yl]-4-(dimethylamino)but-2-enamide]
mean accumulation ratio ([1]; after a 240-mg dose, repeated daily administration): 1.2 | dose dependence of Cmax and AUC ([1]; after oral administration): increased in a dose-dependent manner | AUC [1, 4]: 1700 ng·h/mL | Cmax [1, 4]: 105 ng/mL | AUC [1, 5]: 975 ng·h/mL | Cmax [1, 5]: 70.1 ng/mL | AUC [1, 6]: 939 ng·h/mL | Cmax [1, 6]: 73.5 ng/mL | AUC [1, 7]: 1330 ng·h/mL | Cmax [1, 7]: 90.4 ng/mL | Vd/F ([1]; human, in vivo, day 1, after oral absorption, read-out: apparent volume of distribution (Vz/F)): 3190 to 6180 L | half-life ([1]; human, in vivo, oral administration, day 1, read-out: mean apparent terminal half-life (t1/2)): 13 to 17 h | absorption ([1]; oral): relatively slow | 16-week PFS rate [2, 8]: 61% | Median Progression Free Survival (PFS) [2, 8]: 23 | 16-week PFS rate [2, 9]: 57% | Median Progression Free Survival (PFS) [2, 9]: 22 | antitumor activity ([2]; subjects with erbB-2-positive advanced breast cancer, 240 mg daily oral): significant antitumor activity | ORR ([2]; subjects with prior trastuzumab containing therapy in the metastatic setting, independently assessed, 240 mg daily oral): 26% | ORR ([2]; subjects with prior trastuzumab containing therapy in the metastatic setting, investigator assessed, 240 mg daily oral): 35% | 16-week PFS rate [2, 10]: 75% | PFS [2, 10]: 40 | ORR ([2]; trastuzumab naïve subjects, independently assessed, 240 mg daily oral): 51% | ORR ([2]; trastuzumab naïve subjects, investigator assessed, 240 mg daily oral): 62% | 16-week PFS rate [2, 11]: 78% | PFS [2, 11]: 35 | Diarrhea considered related to neratinib, frequency of subjects ([3]; 240 mg daily oral): 94% | anorexia grade 3-4, subjects ([3]; 240 mg daily oral): 4% | anorexia related, subjects ([3]; 240 mg daily oral): 16% | fatigue grade 3-4, subjects ([3]; 240 mg daily oral): < 2% | fatigue related, subjects ([3]; 240 mg daily oral): 20% | grade 3-4 diarrhea, subjects ([3]; 240 mg daily oral): 25% | nausea grade 3-4, subjects ([3]; 240 mg daily oral): 2% | nausea related to neratinib, subjects ([3]; 240 mg daily oral): 30% | vomiting grade 3-4, subjects ([3]; 240 mg daily oral): 2% | vomiting related, subjects ([3]; 240 mg daily oral): 23% | tolerability ([3]; daily oral doses of 240 mg): generally well tolerated
